The record followed here is DBAASP.

Converted amounts (≈) assume the structure as drawn. “And” between values parts separate entries of the source, which are not always exact repeats. Equal values may be shown once.

Test systems include Escherichia coli IP76-24; Saccharomyces cerevisiae; Pseudomonas putida; Candida albicans; Cryptococcus neoformans; Escherichia coli; Serratia sp.; Bacillus subtilis; Salmonella typhimurium; Streptococcus mutans; Staphylococcus aureus; Klebsiella aerogenes; Serratia marcescens; Proteus mirabilis; Enterococcus faecium; Klebsiella pneumoniae; Enterobacter cloacae; Staphylococcus hominis; Streptococcus agalactiae; Pseudomonas aeruginosa; Klebsiella oxytoca; Acinetobacter baumannii.

Test in all cases: ≥ marks a high value that may be exact or a test limit, other limits are often not marked, values filed in µg/mL are converted to µM
In assay [1] the test system is Candida albicans IP884-65.
Assay [2] deals with Cryptococcus neoformans IP960-67.
For assay [3], the system named is Aspergillus fumigatus IP1025-70.
Assay [4] has as its system Nocardia brasiliensis IP16-80.
Assay [5] concerns Enterococcus faecalis IP103214.
The test system of assay [6] is Trichophyton simii IP1063-74.
For assay [7], the system named is Aspergillus niger IP218-53.
The test system of assay [8] is Saccharomyces cerevisiae IP118079.
Assay [9] concerns Aeromonas caviae IP67-16T.
Assay [10] has as its system Staphylococcus aureus IP76-25.
Assay [11] concerns Klebsiella oxytoca ATCC 43086.
The subject of assay [12] is Stenotrophomonas maltophilia.
The test system of assay [13] is Enterococcus faecium ATCC 29212.
Assay [14] concerns Staphylococcus aureus ATCC 29213.
Assay [15] concerns Staphylococcus hominis ATCC 29970.
The test system of assay [16] is Pseudomonas aeruginosa ATCC 15442.
Assay [17] has as its system Raoultella ornithinolytica.
Assay [18] has as its system Serratia marcescens ATCC 14041.
Assay [19] has as its system Escherichia coli ATCC 25922.
The test system of assay [20] is Enterobacter cloacae ATCC 13047.
For assay [21], the system named is Raoultella ornithinolytica ATCC 31898.
The test system of assay [22] is Klebsiella pneumoniae ATCC 700603.
Assay [23] concerns Stenotrophomonas maltophilia ATCC 13637.
Assay [24] concerns Bacillus subtilis ATCC 21332.
Assay [25] relates to Klebsiella aerogenes ATCC 49701.
Assay [26] deals with Staphylococcus epidermidis.
Assay [27] has as its system Acinetobacter baumannii ATCC 19606.
The subject of assay [28] is Staphylococcus epidermidis ATCC 12228.
The test system of assay [29] is Proteus mirabilis ATCC 12453.
Assay [30] relates to Pseudomonas aeruginosa U-31.
The test system of assay [31] is Staphylococcus aureus FDA 209P.
The test system of assay [32] is Bacillus subtilis PCI 219.
Assay [33] concerns Escherichia coli NIHJ JC-2.

In general, MIC refers to the lowest concentration found to suppress growth.

In the case of `CC[C@H](C)[C@H](NC(=O)CNC(=O)[C@H](CCCCN)NC(=O)[C@H](CC(C)C)NC(=O)[C@H](CCSC)NC(=O)[C@H](CC(N)=O)NC(=O)[C@H](CCCCN)NC(=O)[C@H](Cc1c[nH]c2ccccc12)NC(=O)[C@H](CC(C)C)NC(=O)[C@H](C)N)C(=O)NCC(=O)N[C@@H](CCCCN)C(N)=O` [ALWKNMLKGIGK], the minimal inhibitory concentration (MIC) in assay [1] is ≥ 40 µM; in assay [2], 6 µM (≈ 8.15 µg/mL); in assay [3], ≥ 90 µM; in assay [4], ≥ 150 µM; in assay [5] it was 6 µM (≈ 8.15 µg/mL); in assay [6], ≥ 70 µM. The MIC against Escherichia coli IP76-24 was 6 µM (≈ 8.15 µg/mL); in assay [7] it was ≥ 90 µM; in assay [8] it was 20 µM (≈ 27.2 µg/mL); in [9] it was 6 µM (≈ 8.15 µg/mL); in [10], ≥ 150 µM.
Regarding `CC[C@H](C)[C@H](NC(=O)[C@H](CO)NC(=O)[C@H](CCCCN)NC(=O)[C@H](Cc1ccccc1)NC(=O)[C@H](CCCCN)NC(=O)[C@H](CCCCN)NC(=O)[C@H](CC(C)C)NC(=O)[C@@H]1CCCN1C(=O)[C@@H](NC(=O)[C@H](CCCCN)NC(=O)[C@@H](NC(=O)[C@@H](NC(=O)[C@H](C)N)C(C)C)C(C)C)C(C)C)C(=O)N[C@@H](CCCN=C(N)N)C(=O)N[C@@H](CCC(=O)O)C(=O)N[C@H](C(=O)N[C@@H](CCSC)C(=O)N[C@@H](CCCCN)C(=O)N[C@@H](CCC(=O)O)C(=O)N[C@@H](CCCCN)C(=O)NCC(=O)N[C@@H](CC(C)C)C(=O)N[C@@H](CC(C)C)C(=O)N[C@@H](CCC(=O)O)C(=O)N[C@@H](CC(=O)O)C(=O)N[C@@H](Cc1ccccc1)C(=O)O)[C@@H](C)O` [AVVKVPLKKFKSIRETMKEKGLLEDF], the MIC against Saccharomyces cerevisiae was 3.95 µM (≈ 12 µg/mL); with Pseudomonas putida it was ≥ 33 µM; against Candida albicans it was 33 µM (≈ 100 µg/mL); against Cryptococcus neoformans, ≥ 33 µM; in the assay with Escherichia coli, 16.5 µM (≈ 50 µg/mL); in the assay on Serratia sp., ≥ 65.9 µM. Also, the MIC is 16.5 µM (≈ 50 µg/mL) against Bacillus subtilis, 6.59 µM (≈ 20 µg/mL) with Salmonella typhimurium, 16.5 µM (≈ 50 µg/mL) against Streptococcus mutans and 33 µM (≈ 100 µg/mL) in the assay on Staphylococcus aureus.
On to `CC[C@H](C)[C@H](NC(=O)[C@@H](NC(=O)[C@@H]1CCCN1C(=O)[C@@H](NC(=O)[C@@H]1CCCN1C(=O)[C@H](CCCCN)NC(=O)[C@H](CCCCN)NC(=O)[C@H](CO)NC(=O)CN)C(C)C)[C@@H](C)CC)C(=O)N[C@@H](Cc1ccc(O)cc1)C(=O)N[C@H]1CSSC[C@@H](C(=O)N[C@@H](CCC(N)=O)C(=O)N[C@@H](CCCN=C(N)N)C(=O)N[C@@H](CCSC)C(=O)O)NC(=O)[C@H](CCCCN)NC(=O)CNC(=O)[C@H](CO)NC(=O)[C@H](CCCN=C(N)N)NC(=O)[C@H](CCCN=C(N)N)NC(=O)[C@H](CC(N)=O)NC1=O` [GSKKPVPIIYCNRRSGKCQRM], for which the MIC in assay [11] is 3.3 µM (≈ 7.99 µg/mL); in assay [12], ≥ 52.9 µM; in the assay on Klebsiella aerogenes, 1.65 µM (≈ 4 µg/mL); in the assay with Serratia marcescens it was ≥ 52.9 µM; in assay [13], 26.4 µM (≈ 63.9 µg/mL); in [14] it was > 52.9 µM. For the same compound, the minimum inhibitory concentration (MIC) in assay [15] is ≥ 52.9 µM; against Proteus mirabilis, ≥ 52.9 µM; in [16] it was ≥ 52.9 µM; in the assay with Enterococcus faecium, ≥ 37.4 µM; in [17] it was 3.3 µM (≈ 7.99 µg/mL); against Klebsiella pneumoniae, 2.34 µM (≈ 5.65 µg/mL). Moreover, the MIC is 4.67 µM (≈ 11.3 µg/mL) against Enterobacter cloacae; ≥ 52.9 µM in [18]; 2.34 µM and 1.6 µM in assay [19]; 3.3 µM (≈ 7.99 µg/mL) in assay [20]; ≥ 52.9 µM against Staphylococcus hominis; ≥ 52.9 µM with Streptococcus agalactiae. Further, the minimal inhibitory concentration (MIC) was 2.34 µM (≈ 5.65 µg/mL) in the assay on Escherichia coli; > 52.9 µM in the assay with Pseudomonas aeruginosa; 3.3 µM (≈ 7.99 µg/mL) in [21]; 3.3 µM (≈ 7.99 µg/mL) in assay [22]; ≥ 52.9 µM in assay [23]; 3.3 µM (≈ 7.99 µg/mL) against Klebsiella oxytoca. The MIC in assay [24] is 3.3 µM (≈ 7.99 µg/mL); in [25], 1.65 µM (≈ 4 µg/mL); in assay [26] it was ≥ 52.9 µM; in assay [27] it was > 52.9 µM; against Acinetobacter baumannii it was ≥ 52.9 µM; in the assay with Staphylococcus aureus it was > 52.9 µM. Also, the MIC in assay [28] was > 52.9 µM; in assay [29] it was ≥ 52.9 µM.
Regarding `CC(C)C[C@H](NC(=O)[C@H](CCCCN)NC(=O)[C@H](CCCCN)NC(=O)[C@H](CCCCN)NC(=O)[C@H](CC(C)C)NC(=O)[C@H](CCCCN)NC(=O)[C@H](CCCCN)NC(=O)[C@H](Cc1c[nH]c2ccccc12)NC(=O)[C@H](CCCCN)NC(=O)[C@H](CCCCN)NC(=O)[C@H](CCCCN)NC(=O)[C@H](CC(C)C)NC(=O)[C@H](CCCCN)NC(=O)[C@H](CCCCN)NC(=O)[C@H](CC(C)C)NC(=O)[C@H](CCCCN)NC(=O)[C@@H](N)CCCCN)C(=O)N[C@@H](CCCCN)C(=O)O` [KKLKKLKKKWKKLKKKLK], the minimal inhibitory concentration (MIC) in assay [30], in [31], in [32] and in [33] was ≥ 43 µM each time.
